Organism: Rattus norvegicus
Assay: Open TG-GATES - Regimen: Single
Type: toxicity, organism-based, Sprague-Dawley
Set-up: regimen Single, gender Male, age 6 weeks
Conditions: in vivo, po, 0 mg/kg, route gavage, dose level Control; for APTT / Bas / Eos / Fbg / Hb / Ht / Lym / MCH / MCHC / MCV / Mono / PT / Plat / RBC / Ret / WBC: tissue Blood; for KIDNEY_L / KIDNEY_R / KIDNEY_TOTAL: tissue Kidney; for LIVER: tissue Liver

With C#C[C@]1(O)CC[C@H]2[C@@H]3CCc4cc(O)ccc4[C@H]3CC[C@@]21C [ETHINYL ESTRADIOL] the TERMINAL_BW (3 h) was 196.6 g, the APTT (3 h) was 16.9 s and the Bas (3 h) was 0%. For the same compound, the Eos (3 h) was 0.8%, the Fbg (3 h) was 256 mg/dL and the Hb (3 h) was 13.2 g/dL. The Ht (3 h) was 39.9%, the Lym (3 h) was 79.4% and the MCH (3 h) was 21.8 pg. For the same compound, the MCHC (3 h) was 33.1%, the MCV (3 h) was 66 fL and the Mono (3 h) was 3.8%. It also gave a PT (3 h) of 12.2 s, a Plat (3 h) of 117 x10_4/uL and an RBC (3 h) of 604.8 x10_4/ul. For the same compound, the Ret (3 h) was 9.9%, the WBC (3 h) was 82.1 x10_2/uL and the KIDNEY_L (3 h) was 0.8 g. The KIDNEY_R (3 h) was 0.8 g, the KIDNEY_TOTAL (3 h) was 1.7 g and the LIVER (3 h) was 8.6 g. For the same compound, the ALP (3 h, tissue Plasma) was 1558.8 IU/L, the ALT (3 h, tissue Plasma) was 44 IU/L and the AST (3 h, tissue Plasma) was 77.6 IU/L. It also gave a BUN (3 h, tissue Plasma) of 10.6 mg/dL, a CRE (3 h, tissue Plasma) of 0.2 mg/dL and a Ca (3 h, tissue Plasma) of 11.3 mg/dL. For the same compound, the Cl (3 h, tissue Plasma) was 107 meq/L, the DBIL (3 h, tissue Plasma) was 0.02 mg/dL and the IP (3 h, tissue Plasma) was 8.6 mg/dL. The K (3 h, tissue Plasma) was 4 meq/L, the LDH (3 h, tissue Plasma) was 56 IU/L and the Na (3 h, tissue Plasma) was 142.4 meq/L. For the same compound, the PL (3 h, tissue Plasma) was 157.6 mg/dL, the RALB (3 h, tissue Plasma) was 2.6 g/dL and the TBIL (3 h, tissue Plasma) was 0.044 mg/dL. It also gave a TC (3 h, tissue Plasma) of 86.2 mg/dL, a TP (3 h, tissue Plasma) of 5.5 g/dL and a gamma-GTP (3 h, tissue Plasma) of 1.2 IU/L. The TERMINAL_BW (6 h) was 194 g, the APTT (6 h) was 16.2 s and the Bas (6 h) was 0%. The Eos (6 h) was 1%, the Fbg (6 h) was 265.8 mg/dL and the Hb (6 h) was 13.2 g/dL. It also gave a Ht (6 h) of 39.3%, a Lym (6 h) of 75% and an MCHC (6 h) of 33.6%. It also gave an MCV (6 h) of 63.4 fL, a PT (6 h) of 12.3 s and a Plat (6 h) of 123.8 x10_4/uL. The RBC (6 h) was 620.2 x10_4/ul, the Ret (6 h) was 9.8% and the WBC (6 h) was 90.8 x10_2/uL. The KIDNEY_L (6 h) was 0.8 g, the KIDNEY_R (6 h) was 0.8 g and the KIDNEY_TOTAL (6 h) was 1.7 g. It also gave an LIVER (6 h) of 7.6 g, an ALP (6 h, tissue Plasma) of 1686.2 IU/L and an ALT (6 h, tissue Plasma) of 42 IU/L. For the same compound, the AST (6 h, tissue Plasma) was 79.2 IU/L, the BUN (6 h, tissue Plasma) was 7.6 mg/dL and the CRE (6 h, tissue Plasma) was 0.2 mg/dL. The Ca (6 h, tissue Plasma) was 10.8 mg/dL, the Cl (6 h, tissue Plasma) was 109.4 meq/L and the DBIL (6 h, tissue Plasma) was 0.012 mg/dL. The IP (6 h, tissue Plasma) was 10.2 mg/dL, the K (6 h, tissue Plasma) was 4 meq/L and the LDH (6 h, tissue Plasma) was 53.6 IU/L. The Na (6 h, tissue Plasma) was 144.6 meq/L, the PL (6 h, tissue Plasma) was 122.6 mg/dL and the RALB (6 h, tissue Plasma) was 2.6 g/dL. For the same compound, the TBIL (6 h, tissue Plasma) was 0.046 mg/dL, the TC (6 h, tissue Plasma) was 75.6 mg/dL and the TP (6 h, tissue Plasma) was 5.4 g/dL. For the same compound, the gamma-GTP (6 h, tissue Plasma) was 1 IU/L, the TERMINAL_BW (9 h) was 195.8 g and the Bas (9 h) was 0%. For the same compound, the Eos (9 h) was 1%, the Fbg (9 h) was 265.2 mg/dL and the Hb (9 h) was 12.8 g/dL. The Ht (9 h) was 38%, the Lym (9 h) was 72.2% and the MCH (9 h) was 21.8 pg. It also gave an MCHC (9 h) of 33.6%, an MCV (9 h) of 64.8 fL and a PT (9 h) of 12.4 s. The Plat (9 h) was 119.3 x10_4/uL, the RBC (9 h) was 588 x10_4/ul and the Ret (9 h) was 9.5%. The WBC (9 h) was 73.4 x10_2/uL, the KIDNEY_L (9 h) was 0.9 g and the KIDNEY_R (9 h) was 0.9 g. It also gave a KIDNEY_TOTAL (9 h) of 1.7 g, an LIVER (9 h) of 7 g and an ALP (9 h, tissue Plasma) of 1662.8 IU/L. For the same compound, the ALT (9 h, tissue Plasma) was 42 IU/L, the AST (9 h, tissue Plasma) was 75 IU/L and the BUN (9 h, tissue Plasma) was 9.2 mg/dL. The CRE (9 h, tissue Plasma) was 0.2 mg/dL, the Ca (9 h, tissue Plasma) was 10.5 mg/dL and the Cl (9 h, tissue Plasma) was 107.8 meq/L. The DBIL (9 h, tissue Plasma) was 0.01 mg/dL, the IP (9 h, tissue Plasma) was 10.7 mg/dL and the K (9 h, tissue Plasma) was 3.8 meq/L. For the same compound, the LDH (9 h, tissue Plasma) was 42 IU/L, the Na (9 h, tissue Plasma) was 144 meq/L and the PL (9 h, tissue Plasma) was 125.4 mg/dL. For the same compound, the RALB (9 h, tissue Plasma) was 2.5 g/dL, the TBIL (9 h, tissue Plasma) was 0.04 mg/dL and the TC (9 h, tissue Plasma) was 77 mg/dL. For the same compound, the TP (9 h, tissue Plasma) was 5.2 g/dL, the gamma-GTP (9 h, tissue Plasma) was 1.2 IU/L and the TERMINAL_BW (24 h) was 203.2 g. For the same compound, the APTT (24 h) was 16.4 s, the Bas (24 h) was 0% and the Eos (24 h) was 1%. It also gave a Fbg (24 h) of 245.4 mg/dL, a Hb (24 h) of 12.9 g/dL and a Ht (24 h) of 38.3%. The Lym (24 h) was 76.2%, the MCH (24 h) was 21.6 pg and the MCHC (24 h) was 33.6%. For the same compound, the MCV (24 h) was 64.4 fL, the Mono (24 h) was 3.6% and the PT (24 h) was 12.5 s. It also gave a Plat (24 h) of 112.7 x10_4/uL, an RBC (24 h) of 594.4 x10_4/ul and a Ret (24 h) of 8.5%. For the same compound, the WBC (24 h) was 103.2 x10_2/uL, the KIDNEY_L (24 h) was 0.9 g and the KIDNEY_R (24 h) was 0.9 g. The KIDNEY_TOTAL (24 h) was 1.7 g, the LIVER (24 h) was 8.9 g and the ALP (24 h, tissue Plasma) was 1908.8 IU/L. For the same compound, the ALT (24 h, tissue Plasma) was 52.2 IU/L, the AST (24 h, tissue Plasma) was 78.6 IU/L and the BUN (24 h, tissue Plasma) was 13.8 mg/dL. For the same compound, the CRE (24 h, tissue Plasma) was 0.2 mg/dL, the Cl (24 h, tissue Plasma) was 104.8 meq/L and the DBIL (24 h, tissue Plasma) was 0.01 mg/dL. It also gave a GLC (24 h, tissue Plasma) of 194.2 mg/dL, an IP (24 h, tissue Plasma) of 7.7 mg/dL and an LDH (24 h, tissue Plasma) of 62.4 IU/L. For the same compound, the Na (24 h, tissue Plasma) was 141 meq/L, the PL (24 h, tissue Plasma) was 136.2 mg/dL and the RALB (24 h, tissue Plasma) was 2.5 g/dL. For the same compound, the TBIL (24 h, tissue Plasma) was 0.034 mg/dL.

— ChEMBL document CHEMBL3885861, “Open TG-GATES”
